# Target: T1, human CXCR3 (N-delta 4) (Homo sapiens, UniProt P49682)
# T1 construct: CD8 leader (N); Flag; expressed in transfected cells; membranes prepared
# T1 sequence (P49682 5-368 limits assumed): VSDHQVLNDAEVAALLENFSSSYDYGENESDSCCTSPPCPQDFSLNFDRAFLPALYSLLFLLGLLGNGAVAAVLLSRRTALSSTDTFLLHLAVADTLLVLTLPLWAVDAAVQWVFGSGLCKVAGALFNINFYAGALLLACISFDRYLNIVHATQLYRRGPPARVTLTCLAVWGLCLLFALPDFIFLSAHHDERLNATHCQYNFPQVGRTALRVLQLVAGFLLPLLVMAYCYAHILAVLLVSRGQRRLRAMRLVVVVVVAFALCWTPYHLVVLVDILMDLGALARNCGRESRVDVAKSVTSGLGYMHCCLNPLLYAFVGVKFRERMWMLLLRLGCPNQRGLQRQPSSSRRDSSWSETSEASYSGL
# Experiment: Human CXCR3 (N-delta 4) Scintillation Proximity Assay (SPA), [125I] IP-10 binding to Ba/F3-hCXCR3 membranes
# Settings: IC50 rating, Table 1; read-out: IC50
row,IC50 [nM],SMILES
1,< 25,CC[C@H]1CN(c2nc(N)c(C(=O)NC(=N)NC)nc2Cl)CCN1C1CCN(Cc2ccc(Cl)c(F)c2)CC1 [compound 389]
2,< 25,CCc1ccc(C(=O)N2CCC(N3CCN(c4ncc(C(=O)NC5CC5)nc4C(F)(F)F)C[C@@H]3CC)CC2)cc1 [compound 487]
3,> 100,CC[C@H]1CN(c2nc(N)c(C(=O)N[C@@H](CO)C(C)O)nc2Cl)CCN1C1CCN(C(=O)c2ccc(Cl)cc2)CC1 (some centres unmarked) [compound 328]
4,< 25,CC[C@H]1CN(c2ncc(C(=O)NC3CC3)nc2C)CCN1C1CCN([C@H](CO)c2ccc(Cl)cc2)CC1 [compound 470]
5,< 25,CC[C@H]1CN(c2nc(N)c(C(=O)NC)nc2Cl)CCN1C1CCN(C(=N)c2ccc(Cl)cc2)CC1 [compound 371]
6,> 100,CC[C@H]1CN(c2nc(N)c(C(=O)NCCO)nc2Cl)CCN1C1CCN(C(=O)c2ccc(Cl)cc2OCCN)CC1 [compound 326]
7,> 100,CC[C@H]1CN(c2nc(N)c(C(N)=O)nc2Cl)CCN1C1CCN(Cc2ccc(Cl)cc2S(=O)(=O)NC)CC1 [compound 429]
8,> 100,CC[C@H]1CN(c2nc(N)c(C(N)=O)nc2Cl)CCN1C1CCN(C(=O)c2ccc(Cl)cc2CN2Cc3ccccc3C2)CC1 [compound 325]
9,< 25,CC[C@H]1CN(c2ncc(C(N)=O)nc2C(F)(F)F)CCN1C1CCN(C(=O)c2ccc(Cl)cc2)CC1 [compound 416]

# More lines, now with the values behind:
row,SMILES,IC50 [nM]
1,CC[C@H]1CN(c2nc(N)c(C(N)=O)nc2Cl)CCN1C1CCN(Cc2ccc(Cl)cc2CCNC(=O)OC(C)(C)C)CC1 [compound 13],< 25
2,CC[C@H]1CN(c2nc(N)c(C(=O)NCCO)nc2Cl)CCN1C1CCN(Cc2ccc(F)c(F)c2N2CC[C@@H](O)C2)CC1 [compound 135],< 25
3,CC[C@H]1CN(c2nc(N)c(C(=O)OC)nc2Cl)CCN1C1CCN(Cc2ccc(Cl)cc2)CC1 [compound 67],< 25
4,CC[C@H]1CN(c2nc(N)c(C(N)=O)nc2Cl)CCN1C1CCN(Cc2ccc(Cl)cc2C2NC(=O)NC2=O)CC1 (some centres unmarked) [compound 43],> 100
5,CC[C@H]1CN(c2nc(N)c(C(=O)NCCNC(N)=O)nc2Cl)CCN1C1CCN(C(CO)c2ccc(Cl)cc2)CC1 (some centres unmarked) [compound 231],< 25
6,CC[C@H]1CN(c2nc(N)c(C(=O)NC[C@@H](C)O)nc2Cl)CCN1C1CCN(Cc2ccc(Cl)cc2CCNC(C)=O)CC1 [compound 224],25 to 100
7,CC[C@H]1CN(c2nc(N)c(C(=O)NCCOc3ccccc3)nc2Cl)CCN1C1CCN(Cc2ccc(C#N)cc2)CC1 [compound 99],< 25
8,CC[C@H]1CN(c2nc(N)c(C(=O)NCCNS(N)(=O)=O)nc2Cl)CCN1C1CCN(Cc2ccc(C#N)cc2)CC1 [compound 266],< 25
9,CC[C@H]1CN(c2nc(N)c(C(=O)NCCN)nc2Cl)CCN1C1CCN(Cc2ccc(Cl)cc2)CC1 [compound 233],< 25
10,CC[C@H]1CN(c2nc(N)c(C(=O)NCCNS(C)(=O)=O)nc2Cl)CCN1C1CCN([C@H](CO)c2ccc(Cl)cc2)CC1 [compound 249],25 to 100
11,CC[C@H]1CN(c2nc(N)c(C(N)=O)nc2Cl)CCN1C1CCN(Cc2ccc(Cl)cc2CC(=O)N(C)C)CC1 [compound 42],> 100
12,CC[C@H]1CN(c2nc(N)c(C(N)=O)nc2Cl)CCN1C1CCN(Cc2ccc(Cl)cc2C#N)CC1 [compound 20],< 25
13,CC[C@H]1CN(c2nc(N)c(C(=O)NC3CC3)nc2Cl)CCN1C1CCN(Cc2ccc(Cl)cc2OCCO)CC1 [compound 85],< 25
14,CNC(=O)c1nc(Cl)c(N2C[C@H](C)N(C3CCN(Cc4ccc(Cl)cc4F)CC3)C[C@H]2C)nc1N [compound 68],< 25
15,CC[C@H]1CN(c2nc(N)c(C(N)=O)nc2Cl)CCN1C1CCN(Cc2ccc(Cl)cc2CC(=O)NCCNS(C)(=O)=O)CC1 [compound 46],> 100
16,CC[C@H]1CN(c2nc(N)c(C(N)=O)nc2Cl)CCN1C1CCN(Cc2ccc(Cl)cc2[C@H](O)C(N)=O)CC1 [compound 11],< 25
17,CC[C@H]1CN(c2nc(N)c(C(=O)NCCN/C(N)=N/C#N)nc2Cl)CCN1C1CCN(Cc2ccc(Cl)cc2C#N)CC1 [compound 236],> 100
